Measurements as given in paper PMC7946403, “Targeted LC-MS/MS platform for the comprehensive determination of peptides in the kallikrein-kinin system” (Analytical and Bioanalytical Chemistry, 2021).
Where a name gives a salt, the structure may show the parent alone.

Experiments:
[1] = format: in vitro ADME, human
Procedure: In this study, human blank plasma was generated by sampling blood into trisodium citrate S-Monovettes® spiked with hexadimethrine bromide and nafamostat mesylate to prevent the artificial generation of bradykinin. After centrifugation at 2000×g for 10 min at room temperature, the plasma was left at room temperature for 4 h to enable degradation of short-lived kinins. The blank plasma generated was stored at −20 °C until use.
Before preparation of quality control (QC) or calibration curve samples, a protease inhibitor was added to blank plasma samples, following a protocol derived from Nussberger et al.. Solid-phase extraction (SPE) was performed using 96-well Oasis weak cation exchange (WCX) μ-elution plates (Waters, Milford, MA, USA). The wells were conditioned with 200 μL methanol, followed by 200 μL water. […]
Finally, stability was examined using three replicates of four QC levels (high [750.0 pg/mL], mid [125.0 pg/mL] and low [31.1 pg/mL and 7.8 pg/mL]). […] Freeze-thaw stability was determined after one, two and four cycles of complete thawing and refreezing of samples at −80 °C. Furthermore, long-term stability of the plasma samples was analysed after 1, 2 and 4 weeks. For all stability investigations, the maximum deviation of the calculated concentration to the nominal concentration compared to a freshly prepared calibration curve was ≤15% (RE).

[2] = system: artificial generation of bradykinin; experiment: Evaluation of inhibitors preventing the artificial formation of bradykinin for generation of blank plasma; design: species or system human; conditions: plasma from prespiked S-Monovettes stored at 21 °C, analysed after 30 min, 1.5 h and 4.5 h, n = 3
Procedure: Due to the endogenous presence of kinins in human plasma, it was aimed to develop a surrogate matrix mimicking human biological samples at best. Therefore, distinct serine protease inhibitors were evaluated for their ability to prevent the artificial generation of bradykinin after blood sampling. […] Therefore, plasma was drawn into prespiked S-Monovettes® and aliquots of the plasma stored at 21 °C were analysed after 30 min, 1.5 h and 4.5 h. The following inhibitors were investigated and compared to plasma without inhibitor (each n = 3): 4-(2-aminoethyl)benzolsulfonylfluoride (AEBSF), hexadimethrine bromide, aprotinin, nafamostat mesylate and leupeptin. Additionally, the final blank generation protocol was evaluated for six human sources, whose generated blanks were analysed in triplicate to ensure the depletion of endogenous peptides across multiple sources.

With “bradykinin 1-7 (RPPGFSP; Bradykinin; UniProt P01042 381-387, looked up, fragment)” the “Freeze-thaw stability (in words)” value [1] was “trended towards a decrease”.

With hexadimethrine bromide the “Prevention of artificial generation of bradykinin (in words)” value (“Prevention” for short) [2] was “lowest levels of bradykinin were detected”.

With “bradykinin 1-5 (RPPGF; Bradykinin; UniProt P01042 381-385, looked up, fragment)” the “Freeze-thaw stability (in words)” value [1] was “trended towards a decrease”.

With CC(=O)N[C@@H](CC(C)C)C(=O)N[C@@H](CC(C)C)C(=O)N[C@H](C=O)CCCNC(=N)N [leupeptin] the “Prevention” value [2] was “only decreased the formation of bradykinin at the 0.5 h and 1.5 h timepoints”.

With aprotinin the “Prevention” value [2] was “did not sufficiently prevent the artificial generation of bradykinin”.

In the case of N=C(N)c1ccc2cc(OC(=O)c3ccc(N=C(N)N)cc3)ccc2c1 [nafamostat, nafamostat mesylate], the “Prevention” value [2] is reported as “only decreased the formation of bradykinin at the 0.5 h and 1.5 h timepoints”.

In the case of NCCc1ccc(S(=O)(=O)F)cc1 [AEBSF, 4-(2-aminoethyl)benzolsulfonylfluoride], the “Prevention” value [2] is reported as “did not sufficiently prevent the artificial generation of bradykinin”.
